Like-named read-outs stand apart in the source and are kept apart here.
Columns and labels:
Experiment in all cases: microbe, parasite or virus in culture
Assay type in all cases: cell-based, Hepatitis C virus (HCV)
HCV replicon 1AY93H = settings: Replicon Assay A
Summary of the method: (§1)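 Read-out is replicon RNA per cell by real-time RT-PCR, normalised to cyclophilin mRNA amplified in the same well. Cells were exposed to compound for 3 days at 2000 cells/well in medium with 5% fetal bovine serum and 0.5% DMSO.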

HCV replicon 1A = settings: Replicon Assay A
Summary of the method: as §1

HCV replicon 2B = settings: Replicon Assay A
Summary of the method: as §1

HCV replicon 1AQ30D = settings: Replicon Assay B
HCV replicon 1B = settings: Replicon Assay B
[1] = Hepatitis C virus, read-out: 1A Y93H IC50 (nM), replicon 1AY93H
[2] = Hepatitis C virus, read-out: 2B IC50 (nM), replicon 2B
[3] = read-out: 1A Q30D IC50, replicon 1AQ30D
[4] = read-out: 1A Y93H IC50, replicon 1AY93H
[5] = Hepatitis C virus, read-out: 1A Q30D IC50 (nM), replicon 1AQ30D
[6] = read-out: 1A Y93H IC50, HCV replicon 1A Y93H
[7] = read-out: 2B IC50, HCV replicon 2B
[8] = read-out: 1A Q30D IC50, HCV replicon 1A Q30D
[9] = Hepatitis C virus, read-out: 1A Y93H IC50, HCV replicon 1A Y93H
[10] = Hepatitis C virus, HCV replicon 1A
[11] = Hepatitis C virus, read-out: 2B IC50, HCV replicon 2B
[12] = Hepatitis C virus, read-out: 1A Q30D IC50, HCV replicon 1A Q30D
[13] = Hepatitis C virus, HCV replicon 1B

SMILES	IC50 (HCV replicon 1A; Hepatitis C virus, replicon 1A)	IC50 (HCV replicon 2B; [2])	IC50 (HCV replicon 1B; Hepatitis C virus, replicon 1B)	IC50 (HCV replicon 1AY93H; [4])	IC50 (HCV replicon 1A; replicon 1A)	IC50 (HCV replicon 1AQ30D; [5])	IC50 (HCV replicon 2B; read-out: 2B IC50, replicon 2B)	also measured
COC(=O)N[C@H](C(=O)N1CCC[C@H]1c1nc(-c2cc(F)c3c(c2)OC(c2ccc(C)s2)n2c-3cc3cc(-c4cnc([C@@H]5CCCN5C(=O)[C@@H](NC(=O)OC)C5CCOCC5)[nH]4)ccc32)c[nH]1)C(C)C (stereo partly drawn) [Compound 58]	1.4 pM	0.011 nM	3.4 pM	–	–	–	–	IC50 (HCV replicon 1AY93H; [1]): 0.002 nM; IC50 (HCV replicon 1AQ30D; [3]): 0.041 nM
COC(=O)NC(C(=O)N1CCCC1c1ncc(-c2cc(F)c3c(c2)OC(c2cc4c(s2)CC2(C4)OCCO2)n2c-3cc3cc(-c4cnc(C5CCCN5C(=O)C(NC(=O)OC)C(C)C)[nH]4)ccc32)[nH]1)C(C)C (mixture of isomers) [Compound 847]	–	–	–	–	–	–	–	IC50 (HCV replicon 1AY93H; HCV replicon 1A Y93H, read-out: 1A Y93H IC50): 0.214 nM; IC50 (HCV replicon 1A; HCV replicon 1A): 3.8 pM; IC50 (HCV replicon 2B; HCV replicon 2B, read-out: 2B IC50): 0.312 nM; IC50 (HCV replicon 1AQ30D; HCV replicon 1A Q30D, read-out: 1A Q30D IC50): 1.76 nM; IC50 (HCV replicon 1B; HCV replicon 1B): 5 pM
COC(=O)NC(C(=O)N1CCC[C@H]1c1ncc(-c2cc(F)c3c(c2)OC(c2ccc(C4CC4)s2)n2c-3cc3cc(-c4cnc([C@@H]5CCCN5C(=O)[C@@H](NC(=O)OC)C(C)C)[nH]4)ccc32)[nH]1)C1C[C@@H](C)O[C@@H](C)C1 (single isomer, unassigned) [Compound 186]	–	0.63 nM	2.1 pM	0.53 nM	1.9 pM	2.84 nM	–	–
CCc1ccc(C2Oc3cc(-c4cnc([C@@H]5CCCN5C(=O)[C@@H](NC(=O)OC)C(C)C)[nH]4)cc(F)c3-c3cc4cc(-c5cnc([C@@H]6CCCN6C(=O)[C@H](NC(=O)OC)C6COCC(C)(C)C6)[nH]5)ccc4n32)s1 (stereo partly drawn) [Compound 150]	2.4 pM	0.007 nM	1.9 pM	–	–	0.094 nM	–	IC50 (HCV replicon 1AY93H; [1]): 0.004 nM
COC(=O)N[C@H](C(=O)N1CCC[C@H]1c1ncc(-c2cc(F)c3c(c2)OC(c2cc4c(s2)CCC4)n2c-3cc3cc(-c4cnc([C@@H]5C[C@H]6C[C@H]6N5C(=O)[C@@H](NC(=O)OC)C5C[C@@H](C)O[C@@H](C)C5)[nH]4)ccc32)[nH]1)C(C)C (single isomer, unassigned) [Compound 551]	–	–	–	–	–	–	–	IC50 (HCV replicon 1AY93H; [6]): 0.0167 nM; IC50 (HCV replicon 1A; HCV replicon 1A): 6.29 pM; IC50 (HCV replicon 2B; [7]): 0.0847 nM; IC50 (HCV replicon 1AQ30D; [8]): 0.172 nM; IC50 (HCV replicon 1B; HCV replicon 1B): 7.91 pM
COC(=O)NC(C(=O)N1CCC[C@H]1c1ncc(-c2cc(F)c3c(c2)OC(c2ccc(C4CC4)s2)n2c-3cc3cc(-c4cnc([C@@H]5CCCN5C(=O)C(NC(=O)OC)C(C)(C)F)[nH]4)ccc32)[nH]1)C(C)(C)F (single isomer, unassigned) [Compound 111]	–	–	1.7 pM	0.074 nM	3.2 pM	0.13 nM	0.038 nM	–
COC(=O)N[C@H](C(=O)N1C2CC2C[C@H]1c1ncc(-c2cc(F)c3c(c2)OC(c2ccc(C4CC4)s2)n2c-3cc3cc(-c4cnc([C@@H]5CCCN5C(=O)[C@@H](NC(=O)OC)C5C[C@@H](C)O[C@@H](C)C5)[nH]4)ccc32)[nH]1)C(C)C (single isomer, unassigned) [Compound 557]	–	–	–	–	–	–	–	IC50 (HCV replicon 1AY93H; [6]): 0.00464 nM; IC50 (HCV replicon 1A; HCV replicon 1A): 3.1 pM; IC50 (HCV replicon 2B; [7]): 0.0151 nM; IC50 (HCV replicon 1AQ30D; [8]): 0.041 nM; IC50 (HCV replicon 1B; HCV replicon 1B): 2.49 pM
COC(=O)N[C@H](C(=O)N1CCC[C@H]1c1ncc(-c2cc(F)c3c(c2)OC(c2ccc(C(F)F)s2)n2c-3cc3cc(-c4cnc([C@@H]5CCCN5C(=O)[C@@H](NC(=O)OC)C(C)C)[nH]4)ccc32)[nH]1)C(C)C (single isomer, unassigned) [Compound 46]	2.9 pM	1.79 nM	1 pM	–	–	17.1 nM	–	IC50 (HCV replicon 1AY93H; [1]): 2.6 nM
COC(=O)NC(C(=O)N1CCC[C@H]1c1ncc(-c2cc(F)c3c(c2)OC(c2ccc(C4CC4)s2)n2c-3cc3cc(-c4cnc([C@@H]5CCCN5C(=O)[C@@H](NC(=O)OC)C(C)C)[nH]4)ccc32)[nH]1)C1CCOC(C)(C)C1 (single isomer, unassigned) [Compound 214]	–	–	2.2 pM	0.009 nM	3 pM	–	0.005 nM	IC50 (HCV replicon 1AQ30D; [3]): 0.032 nM
COC(=O)N[C@H](C(=O)N1CCC[C@H]1c1ncc(-c2cc(F)c3c(c2)OC(c2ccc(C(=O)N(C)C)s2)n2c-3cc3cc(-c4cnc([C@@H]5CCCN5C(=O)[C@@H](NC(=O)OC)C(C)C)[nH]4)ccc32)[nH]1)C(C)C (single isomer, unassigned) [Compound 104]	–	–	5.1 pM	0.046 nM	4.3 pM	1.11 nM	0.073 nM	–
COC(=O)N[C@H](C(=O)N1C2CC2C[C@H]1c1ncc(-c2cc(F)c3c(c2)OC(c2ccc(C4CC4)s2)n2c-3cc3cc(-c4cnc([C@@H]5CCCN5C(=O)[C@@H](NC(=O)OC)C5C[C@@H](C)O[C@@H](C)C5)[nH]4)ccc32)[nH]1)C(C)C (single isomer, unassigned) [Compound 554]	–	–	–	–	–	–	–	IC50 (HCV replicon 1AY93H; [6]): 0.237 nM; IC50 (HCV replicon 1A; HCV replicon 1A): 26.8 pM; IC50 (HCV replicon 2B; [7]): 0.203 nM; IC50 (HCV replicon 1AQ30D; [8]): 1.67 nM; IC50 (HCV replicon 1B; HCV replicon 1B): 22.6 pM
COC(=O)N[C@H](C(=O)N1CCC[C@H]1c1ncc(-c2cc(F)c3c(c2)OC(c2ccc(-c4ccc(I)cc4)s2)n2c-3cc3cc(-c4cnc([C@@H]5CCCN5C(=O)[C@@H](NC(=O)OC)C(C)C)[nH]4)ccc32)[nH]1)C(C)C (mixture of isomers) [Compound 313]	3.2 pM	0.1 nM	2.9 pM	–	–	0.19 nM	–	IC50 (HCV replicon 1AY93H; [1]): 0.026 nM
COC(=O)NC(C(=O)N1CCC[C@H]1c1ncc(-c2ccc3c(c2)cc2n3C(c3ccc(C4CC4)s3)Oc3cc(-c4cnc([C@@H]5CCCN5C(=O)[C@@H](NC(=O)OC)C(C)C)[nH]4)cc(F)c3-2)[nH]1)C(C)(C)F (single isomer, unassigned) [Compound 75]	–	–	3.1 pM	0.021 nM	3 pM	0.27 nM	0.041 nM	–
COC(=O)NC(C(=O)N1CCC[C@H]1c1ncc(-c2ccc3c(c2)cc2n3C(c3ccc(C4CC4)s3)Oc3cc(-c4cnc([C@@H]5CCCN5C(=O)[C@@H](NC(=O)OC)C(C)C)[nH]4)cc(F)c3-2)[nH]1)C1C[C@H](C)O[C@@H](C)C1 (single isomer, unassigned) [Compound 403]	2.5 pM	–	3.3 pM	0.0067 nM	–	0.0703 nM	0.007 nM	–
COC(=O)N[C@H](C(=O)N1CCC[C@H]1c1ncc(-c2cc(F)c3c(c2)OC(c2ccc(-c4ccc(N=[N+]=[N-])cc4)s2)n2c-3cc3cc(-c4cnc([C@@H]5CCCN5C(=O)[C@@H](NC(=O)OC)C(C)C)[nH]4)ccc32)[nH]1)C(C)C (mixture of isomers) [Compound 264]	3.7 pM	0.19 nM	4.3 pM	–	–	0.7 nM	–	IC50 (HCV replicon 1AY93H; [1]): 0.029 nM
COC(=O)NC(C(=O)N1CCC[C@H]1c1ncc(-c2ccc3c(c2)cc2n3C(c3ccc(C(F)(F)F)s3)Oc3cc(-c4cnc([C@@H]5CCCN5C(=O)[C@@H](NC(=O)OC)C(C)C)[nH]4)cc(F)c3-2)[nH]1)C1C[C@@H](C)O[C@@H](C)C1 (stereo partly drawn) [Compound 650]	–	–	–	–	–	–	–	IC50 (HCV replicon 1AY93H; [9]): 0.0057 nM; IC50 (HCV replicon 1A; [10]): 2 pM; IC50 (HCV replicon 2B; [11]): 0.005 nM; IC50 (HCV replicon 1AQ30D; [12]): 0.0458 nM; IC50 (HCV replicon 1B; [13]): 1.4 pM
CCc1ccc(C2Oc3cc(-c4cnc([C@@H]5CCCN5C(=O)[C@@H](NC(=O)OC)C(C)C)[nH]4)cc(F)c3-c3cc4cc(-c5cnc([C@@H]6CCCN6C(=O)[C@H](NC(=O)OC)C6CCOC(C)(C)C6)[nH]5)ccc4n32)s1 (stereo partly drawn) [Compound 151]	2 pM	0.004 nM	2.4 pM	–	–	0.022 nM	–	IC50 (HCV replicon 1AY93H; [1]): 0.003 nM
COC(=O)N[C@H](C(=O)N1C[C@H](F)C[C@H]1c1ncc(-c2ccc3c(c2)cc2n3C(c3cc4ccccc4s3)Oc3cc(-c4cnc([C@@H]5CCCN5C(=O)[C@@H](NC(=O)OC)C5CCOCC5)[nH]4)ccc3-2)[nH]1)C(C)C (single isomer, unassigned) [Compound 625]	–	–	–	–	–	–	–	IC50 (HCV replicon 1AY93H; [6]): 0.0049 nM; IC50 (HCV replicon 1A; HCV replicon 1A): 1.9 pM; IC50 (HCV replicon 2B; [7]): 0.145 nM; IC50 (HCV replicon 1AQ30D; [12]): 0.359 nM; IC50 (HCV replicon 1B; [13]): 3.1 pM
COC(=O)N[C@H](C(=O)N1CCC[C@H]1c1ncc(-c2cc(F)c3c(c2)OC(c2cc(F)c(C4CC4)s2)n2c-3cc3cc(-c4cnc([C@@H]5CCCN5C(=O)[C@@H](NC(=O)OC)C(C)C)[nH]4)ccc32)[nH]1)C(C)C (single isomer, unassigned) [Compound 72]	–	–	1.5 pM	0.01 nM	2.6 pM	0.78 nM	0.089 nM	–
COC(=O)NC(C(=O)N1CCC[C@H]1c1ncc(-c2cc(F)c3c(c2)OC(c2ccc(C4CCC4)s2)n2c-3cc3cc(-c4cnc([C@@H]5CCCN5C(=O)[C@@H](NC(=O)OC)C5CCOCC5)[nH]4)ccc32)[nH]1)C(C)(C)F (single isomer, unassigned) [Compound 248]	–	–	3.2 pM	0.11 nM	2.5 pM	0.43 nM	0.076 nM	–
COC(=O)NC(C(=O)N1CCC[C@H]1c1ncc(-c2ccc3c(c2)cc2n3C(c3ccc(CC(C)(C)OC)s3)Oc3cc(-c4cnc([C@@H]5CCCN5C(=O)[C@@H](NC(=O)OC)C(C)C)[nH]4)cc(F)c3-2)[nH]1)C1CCOC(C)(C)C1 (stereo partly drawn) [Compound 848]	–	–	–	–	–	–	–	IC50 (HCV replicon 1AY93H; [9]): 0.01 nM; IC50 (HCV replicon 1A; [10]): 2.9 pM; IC50 (HCV replicon 2B; [11]): 0.026 nM; IC50 (HCV replicon 1AQ30D; [12]): 0.085 nM; IC50 (HCV replicon 1B; [13]): 4.5 pM

Source: patent publication US20160257697A1, “THIOPHENE-SUBSTITUTED TETRACYCLIC COMPOUNDS AND METHODS OFUSE THEREOF FOR THE TREATMENT OF VIRAL DISEASES” (priority 2013, published 2016)
